According to ChEMBL document CHEMBL5143505, “Emerging Approaches to Overcome Acquired Drug Resistance Obstacles to Osimertinib in Non-Small-Cell Lung Cancer” (J Med Chem, 2022):
One block for each molecule: values may come before it.

How the values were obtained:
[1] = Inhibition of p-EGFR Del19/T790M/C797S triple mutant in mouse BaF3 cells; format: cell-based
BaF3 [2] = test: Antiproliferative against in mouse BaF3 EFGR Del19/T790M/C797S cell; format: functional, cell-based
[3] = molecular target: T1, Epidermal growth factor receptor (Homo sapiens, UniProt P00533, C797S/L858R/T790M); test: Inhibition of EGFR L858R/T790M/C797S triple mutant (unknown origin) expressed in mouse BaF3 cells; format: cell-based
T1 sequence (P00533 25-1210 T790M/C797S/L858R limits assumed): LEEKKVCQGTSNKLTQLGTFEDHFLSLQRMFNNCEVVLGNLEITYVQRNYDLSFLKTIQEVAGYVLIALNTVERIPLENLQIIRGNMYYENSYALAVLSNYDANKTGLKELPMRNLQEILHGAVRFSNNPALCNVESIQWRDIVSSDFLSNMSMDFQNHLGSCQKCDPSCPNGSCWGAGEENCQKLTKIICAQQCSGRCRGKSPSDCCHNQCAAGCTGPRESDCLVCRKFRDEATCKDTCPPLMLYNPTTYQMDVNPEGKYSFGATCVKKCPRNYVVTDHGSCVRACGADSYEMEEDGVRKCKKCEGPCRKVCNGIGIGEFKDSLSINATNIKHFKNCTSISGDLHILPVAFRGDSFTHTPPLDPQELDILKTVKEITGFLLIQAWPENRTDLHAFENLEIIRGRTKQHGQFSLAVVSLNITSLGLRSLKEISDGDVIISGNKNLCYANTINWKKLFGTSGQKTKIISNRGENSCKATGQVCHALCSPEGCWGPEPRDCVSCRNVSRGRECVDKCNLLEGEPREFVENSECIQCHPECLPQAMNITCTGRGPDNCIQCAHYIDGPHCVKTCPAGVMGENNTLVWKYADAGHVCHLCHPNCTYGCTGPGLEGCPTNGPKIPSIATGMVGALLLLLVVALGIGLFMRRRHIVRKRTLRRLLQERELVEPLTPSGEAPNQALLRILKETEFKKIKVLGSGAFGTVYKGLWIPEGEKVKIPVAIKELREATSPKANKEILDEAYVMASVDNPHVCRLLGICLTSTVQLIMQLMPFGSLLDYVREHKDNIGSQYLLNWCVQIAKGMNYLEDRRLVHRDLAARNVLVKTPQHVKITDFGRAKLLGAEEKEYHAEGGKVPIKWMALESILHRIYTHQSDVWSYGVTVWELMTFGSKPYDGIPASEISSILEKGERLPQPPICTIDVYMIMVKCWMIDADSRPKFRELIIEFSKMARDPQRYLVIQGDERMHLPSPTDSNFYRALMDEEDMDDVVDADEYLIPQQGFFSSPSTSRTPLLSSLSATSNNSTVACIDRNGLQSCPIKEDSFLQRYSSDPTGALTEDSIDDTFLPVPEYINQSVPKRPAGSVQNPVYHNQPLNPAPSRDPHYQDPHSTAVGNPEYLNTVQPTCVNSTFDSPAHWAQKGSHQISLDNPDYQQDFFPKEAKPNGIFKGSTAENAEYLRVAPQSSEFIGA

[4] = molecular target: T1, Epidermal growth factor receptor; test: Inhibition of EGFR L858R/T790M/C797S triple mutant (unknown origin)
[5] = molecular target: Epidermal growth factor receptor (Homo sapiens, UniProt P00533); test: Inhibition of wild type EGFR (unknown origin)
Chain of Epidermal growth factor receptor (Homo sapiens, UniProt P00533) (P00533 whole entry): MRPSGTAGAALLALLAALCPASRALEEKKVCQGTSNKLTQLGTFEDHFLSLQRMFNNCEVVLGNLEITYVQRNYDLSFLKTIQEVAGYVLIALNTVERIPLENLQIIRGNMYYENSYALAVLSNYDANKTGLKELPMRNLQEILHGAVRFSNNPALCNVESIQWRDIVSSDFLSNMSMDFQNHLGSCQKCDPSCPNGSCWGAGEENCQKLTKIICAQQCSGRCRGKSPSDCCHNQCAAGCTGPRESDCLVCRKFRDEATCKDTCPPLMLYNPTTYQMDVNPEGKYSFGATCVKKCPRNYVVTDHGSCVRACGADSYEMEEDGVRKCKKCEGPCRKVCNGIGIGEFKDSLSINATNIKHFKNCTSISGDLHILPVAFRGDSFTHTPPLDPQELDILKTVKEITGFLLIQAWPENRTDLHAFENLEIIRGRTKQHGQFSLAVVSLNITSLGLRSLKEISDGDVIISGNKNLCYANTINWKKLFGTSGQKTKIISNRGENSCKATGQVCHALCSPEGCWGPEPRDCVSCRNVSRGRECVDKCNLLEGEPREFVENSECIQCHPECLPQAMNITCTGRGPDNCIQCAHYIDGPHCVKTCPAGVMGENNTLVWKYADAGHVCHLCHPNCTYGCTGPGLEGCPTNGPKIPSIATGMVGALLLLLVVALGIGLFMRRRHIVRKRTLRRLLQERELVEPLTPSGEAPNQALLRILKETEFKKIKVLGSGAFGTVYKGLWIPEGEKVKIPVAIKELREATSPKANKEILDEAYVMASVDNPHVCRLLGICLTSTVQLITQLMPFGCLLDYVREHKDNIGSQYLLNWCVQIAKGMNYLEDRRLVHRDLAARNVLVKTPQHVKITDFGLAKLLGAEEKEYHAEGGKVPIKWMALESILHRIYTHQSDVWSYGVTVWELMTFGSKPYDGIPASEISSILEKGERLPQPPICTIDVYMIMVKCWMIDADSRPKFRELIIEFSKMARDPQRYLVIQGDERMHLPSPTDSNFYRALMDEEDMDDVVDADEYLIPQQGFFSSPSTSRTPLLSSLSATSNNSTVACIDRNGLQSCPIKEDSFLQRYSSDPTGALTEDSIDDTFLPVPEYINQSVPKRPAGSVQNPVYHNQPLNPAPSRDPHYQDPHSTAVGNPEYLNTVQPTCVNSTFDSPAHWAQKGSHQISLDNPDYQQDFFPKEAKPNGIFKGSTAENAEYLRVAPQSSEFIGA

Homo sapiens = species: Homo sapiens; test: Selectivity ratio of IC50 for EGFR Del19/T790M/C797S triple mutant (unknown origin) to wild type EGFR (unknown origin)
[6] = molecular target: Epidermal growth factor receptor (Homo sapiens, UniProt P00533, C797S/EX19DEL/T790M); test: Inhibition of EGFR Del19/T790M/C797S triple mutant (unknown origin)
Chain of Epidermal growth factor receptor (Homo sapiens, UniProt P00533, C797S/EX19DEL/T790M) (P00533 whole entry, looked up, stated change not applied): as the sequence (P00533 whole entry) above

[7] = Antiproliferative against in mouse Ba/F3 EGFR-Del19/T790M/C797S cells; format: functional, cell-based
[8] = Inhibition of EGFR L858R/T790M/C797S triple mutant (unknown origin) in mouse BaF3 cells; format: cell-based
[9] = Half life in Ba/F3 EGFR cells xenografted nude mouse liver microsomes; format: ADME
[10] = molecular target: Epidermal growth factor receptor (Homo sapiens, UniProt P00533, L858R); test: Inhibition of EGFR L858R mutant (unknown origin)
[11] = Antiproliferative against in mouse Ba/F3 EGFR-T790M/C797S/L858R cells; format: functional, cell-based
NCI-H1975 = test: Growth inhibition of human NCI-H1975 cells; format: functional, cell-based
[12] = Oral bioavailability in rat relative to control; format: ADME, organism-based; conditions: in vivo
[13] = molecular target: T2, Epidermal growth factor receptor (Homo sapiens, UniProt P00533, L858R/T790M); test: Inhibition of EGFR L858R/T790M double mutant (unknown origin) in human NCI-H1975 cell; format: cell-based
T2 sequence (P00533 25-1210 T790M/L858R limits assumed): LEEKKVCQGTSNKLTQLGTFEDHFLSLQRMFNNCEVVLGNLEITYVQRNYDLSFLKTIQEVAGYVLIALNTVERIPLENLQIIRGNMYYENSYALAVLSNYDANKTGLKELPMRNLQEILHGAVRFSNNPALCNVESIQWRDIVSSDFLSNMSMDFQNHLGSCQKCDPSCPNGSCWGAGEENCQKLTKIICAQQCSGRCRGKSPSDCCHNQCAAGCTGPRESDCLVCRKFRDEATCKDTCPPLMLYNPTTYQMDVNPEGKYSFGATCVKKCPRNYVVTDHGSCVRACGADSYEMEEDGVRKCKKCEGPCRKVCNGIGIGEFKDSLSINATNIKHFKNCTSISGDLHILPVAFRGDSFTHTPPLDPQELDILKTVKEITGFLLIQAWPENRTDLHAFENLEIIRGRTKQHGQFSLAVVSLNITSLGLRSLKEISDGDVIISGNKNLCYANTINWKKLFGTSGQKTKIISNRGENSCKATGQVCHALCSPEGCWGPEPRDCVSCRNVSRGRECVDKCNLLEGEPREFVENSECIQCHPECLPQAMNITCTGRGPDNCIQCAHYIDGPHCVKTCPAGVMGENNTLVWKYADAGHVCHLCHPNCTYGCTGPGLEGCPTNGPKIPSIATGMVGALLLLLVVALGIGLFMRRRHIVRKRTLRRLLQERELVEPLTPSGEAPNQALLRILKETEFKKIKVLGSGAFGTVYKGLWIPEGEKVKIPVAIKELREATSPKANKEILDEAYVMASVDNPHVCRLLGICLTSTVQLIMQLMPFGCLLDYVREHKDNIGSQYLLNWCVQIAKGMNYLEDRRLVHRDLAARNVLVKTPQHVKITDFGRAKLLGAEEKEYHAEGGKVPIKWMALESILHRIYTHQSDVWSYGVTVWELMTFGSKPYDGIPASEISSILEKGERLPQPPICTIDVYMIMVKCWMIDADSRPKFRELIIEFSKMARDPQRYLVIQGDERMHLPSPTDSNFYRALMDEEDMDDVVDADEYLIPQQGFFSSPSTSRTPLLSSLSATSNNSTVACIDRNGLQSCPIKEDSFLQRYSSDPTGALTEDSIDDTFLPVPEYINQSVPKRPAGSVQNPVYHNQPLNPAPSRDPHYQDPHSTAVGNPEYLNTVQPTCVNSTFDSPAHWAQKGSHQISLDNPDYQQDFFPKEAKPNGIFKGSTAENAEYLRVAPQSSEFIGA

[14] = Oral bioavailability in mouse relative to control; format: ADME, organism-based; conditions: in vivo
[15] = molecular target: T1, Epidermal growth factor receptor; test: Inhibition of EGFR L858R/T790M/C797S triple mutant (unknown origin) in human NCI-H1975 cell; format: cell-based
[16] = molecular target: T1, Epidermal growth factor receptor; test: Inhibition of EGFR L858R/T790M/C797S triple mutant (unknown origin) by HTRF method
[17] = molecular target: T2, Epidermal growth factor receptor; test: Inhibition of EGFR L858R/T790M double mutant (unknown origin)
BaF3 [18] = test: Antiproliferative against in mouse BaF3 cells harbouring Del19/T790M/C797S triple mutant at 100 nM relative to control; format: functional
BaF3 [19] = test: cells; conditions: Mus musculus

IC50 [1]: 0.6 nM
Compound: Cc1cc2cc(n1)-c1cnn(C)c1OCCC[C@@H](C)CN1/C(=N/C2=O)Nc2ccc(CN3CCN(C)CC3)cc21

IC50 [1]: 790 nM
IC50 (BaF3 [2]): 250 nM
Compound: CC(C)(O)Cn1/c(=N/C(=O)c2cc(F)cc(-c3cccnc3)c2)[nH]c2ccccc21

IC50 [3]: 662 nM
IC50 [4]: 27.5 nM
IC50 [5]: ≥ 1000 nM
Compound: CCC(=O)N1CCC[C@@H](N2CC(c3cccc(F)c3Cl)=C(C)c3cnc(Nc4ccc(N5CCN(C)CC5)c(C)c4)nc32)C1

IC50 [4]: 22 nM
Compound: CN1CCN(c2ccc(Nc3ncc4nc(Nc5ccc(F)cc5)n([C@H]5CCN(S(=O)(=O)C6CC6)C5)c4n3)cc2)CC1

Ratio IC50 (Homo sapiens): 163
Compound: Oc1ccccc1-c1nc(NCc2cccnc2)c2ccccc2n1

IC50 [6]: 17.9 nM
Ratio IC50 (Homo sapiens): 1000
IC50 [5]: ≥ 50000 nM
Compound: N#Cc1ccc(O)c(-c2nc(NCc3cnccn3)c3ccccc3n2)c1

IC50 [3]: 5420 nM
IC50 [4]: 53 nM
IC50 [5]: 1620 nM
Compound: CC(C)(C)n1cc(-c2cncc3ccccc23)c2c(N)ncnc21

IC50 [5]: ≤ 0.2 nM
Compound: OCCCc1nc(-c2ccc(F)cc2)c(-c2ccnc3[nH]c(-c4ccccc4)cc23)[nH]1

IC50 [1]: ≤ 100 nM
Compound: CN1CC2(CCN(c3ccc(Nc4ncc(Cl)c(Nc5ccccc5P(C)(C)=O)n4)cc3Br)CC2)C1
IC50 [7]: ≤ 100 nM

IC50 [4]: 5 nM
Compound: O=C(Nc1nccs1)C(c1ncn2c1CCC2)N1Cc2c(F)cc(C#Cc3ccc(CN4CCC(CO)CC4)cc3)cc2C1=O (configuration not stated)

IC50 [8]: 210 nM
Compound: CCC(=O)N[C@H]1CC[C@@H](N2C(=O)N(c3ccccc3Cl)Cc3cnc(Nc4ccc(N5CCN(C)CC5)c(C)c4)nc32)CC1

IC50 [4]: 8.5 nM
Compound: COc1cc(N(C)CCN(C)C)ccc1Nc1nccc(-c2cn(CCCO)c3ccccc23)n1

Compound: C=CC(=O)Nc1cc(Nc2ncc(C(=O)OC(C)C)c(-c3cc4ccccc4n3C3CC3)n2)c(OCC(F)(F)F)nc1N(C)CCN(C)C
IC50 [7]: 10 nM

IC50 [6]: 0.212 nM
half-life [9]: 20.5 h
Compound: CCc1cc(Nc2ncc(Br)c(Nc3ccc4nccnc4c3P(C)(C)=O)n2)c(OC)cc1N1CCC(N2CCN(C)CC2)CC1
IC50 [7]: 9 nM

IC50 [4]: 40 nM
Compound: CN1CCN(c2ccc(Nc3ncc4nc(Nc5ccccc5)n([C@@H]5CCN(S(=O)(=O)C6CC6)C5)c4n3)cc2)CC1

Compound: COc1cc2c(Nc3ccc(NC(=O)C(c4cc(F)ccc4F)N4Cc5ccccc5C4=O)cc3F)ncnc2cc1OCC1CCN(C)CC1 (configuration not stated)
IC50 [7]: 3.54 nM

IC50 [10]: 1.2 nM
Compound: CN(C)CCOc1ccc(Nc2ncc3nc(Sc4ccc(F)cc4)n(C4CCOCC4)c3n2)cc1

Compound: C=CC(=O)Nc1cc(Nc2nccc(-c3cn(C)c4ccccc34)n2)c(OC)cc1N(C)CCN(C)C [OSIMERTINIB]
IC50 [11]: 1080 nM
IC50 [7]: 730 nM

IC50 [1]: ≤ 100 nM
Compound: C=C(C)c1cnc(Nc2ccc(N3CCC4(CC3)CN(C)C4)cc2)nc1Nc1ccccc1P(C)(C)=O
IC50 [7]: ≤ 100 nM

IC50 [6]: 12 nM
IC50 [4]: 48.2 nM
IC50 [5]: 540 nM
Compound: Cn1cc(-c2cc(C(=O)/N=c3\[nH]c4ccccc4n3[C@H]3CC[C@H](O)CC3)ccn2)cn1
IC50 [11]: 48.2 nM
IC50 [7]: 12 nM

half-life [9]: 10 h
Compound: COc1cc(N2CCC(N3CCN(C)CC3)CC2)c(C)cc1Nc1ncc(Br)c(Nc2ccc3nccnc3c2P(C)(C)=O)n1

IC50 [5]: ≤ 0.3 nM
Compound: OCCc1nc(-c2ccc(F)cc2)c(-c2ccnc3[nH]c(-c4ccccc4)cc23)[nH]1

IC50 [4]: 52 nM
IC50 [5]: > 1000 nM
Compound: O=C1c2cc(F)ccc2Nc2ccccc2N1Cc1ccccc1

IC50 [1]: ≤ 100 nM
Compound: Cc1cc(Nc2ncc(Cl)c(Nc3ccccc3P(C)(C)=O)n2)ccc1N1CCC2(CC1)CN(C)C2
IC50 [7]: ≤ 100 nM

IC50 (NCI-H1975): 400 nM
IC50 [4]: 662 nM
Compound: CN(C)C1CCN(c2ccc(Nc3cc4c(N5CCC(CO)CC5)nc(Nc5ccc(F)cc5)nc4cn3)nc2)CC1

IC50 [5]: ≥ 50000 nM
Compound: COC(=O)c1ccc(O)c(-c2nc(NCc3cccnc3)c3ccccc3n2)c1

IC50 [4]: 38.1 nM
Compound: CCC(=O)N[C@H]1CC[C@H](n2c(=O)c(-c3ccccc3Cl)cc3ccc(Nc4ccc(N5CCN(C)CC5)c(C)c4)cc32)CC1

Compound: C=CC(=O)Nc1cc(Nc2ncc(C(=O)OC(C)C)c(-c3cc4ccccc4n3C)n2)c(OCC(F)(F)F)nc1N(C)CCN(C)C
IC50 [7]: 9 nM

IC50 [4]: 47.8 nM
Compound: CC(=O)N[C@H]1CC[C@H](n2c(=O)c(-c3ccccc3Cl)cc3ccc(Nc4ccc(N5CCN(C)CC5)c(C)c4)cc32)CC1

IC50 [4]: 18 nM
Compound: CN1CCN(c2ccc(Nc3ncc4nc(Nc5ccccc5)n([C@H]5CCN(S(=O)(=O)C6CC6)C5)c4n3)cc2)CC1

IC50 [5]: 1000 nM
Compound: Oc1ccc(-c2nc(-c3ccnc4[nH]c(-c5ccccc5)cc34)c(-c3ccc(F)cc3)[nH]2)cc1

IC50 [5]: ≤ 0.3 nM
Compound: OCCCCc1nc(-c2ccc(F)cc2)c(-c2ccnc3[nH]c(-c4ccccc4)cc23)[nH]1

IC50 [6]: 23 nM
IC50 [5]: 50000 nM
Compound: N#Cc1ccc(O)c(-c2nc(NCc3cccnc3)c3ccccc3n2)c1

IC50 [5]: 287 nM
Compound: CSc1nc(-c2ccc(F)cc2)c(-c2ccnc3[nH]c(-c4ccccc4)cc23)[nH]1

bioavailability [12]: 18.6%
IC50 [13]: 3300 nM
bioavailability [14]: 18.6%
IC50 [15]: 1200 nM
IC50 [16]: 630 nM
Compound: N#Cc1ccc(O)c(-c2nc(NCc3ncccn3)c3ccccc3n2)c1

IC50 [17]: 15 nM
Compound: O=C(Nc1nccs1)C(c1ccccc1)N1Cc2ccc(-c3ccc4[nH]ccc4c3)cc2C1=O (configuration not stated)

IC50 (BaF3 [19]): 30 nM
Compound: COc1cc(N2CCC(N3CCN(C)CC3)CC2)ccc1Nc1ncc(Cl)c(Nc2ccccc2P(C)(C)=O)n1 [BRIGATINIB]
inhibition at 0.1 µM (BaF3 [18]): 50%
